# Reference: US20100267561A1, “HERBICIDAL PYRIDAZINONE DERIVATIVES” (priority 2007, published 2010)
# Assays:
# Assay in all cases: Test B pre-/postemergence plant response
# Assay type in all cases: in vivo
# [1] = tested on: woolly cupgrass (Eriochloa villosa)
# Procedure, shortened: (§1)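 Preemergence and postemergence (plants 2-18 cm, 1- to 4-leaf stage) applications used test chemicals in a non-phytotoxic solvent with surfactant. Plants were held in a greenhouse 13 to 15 days, then rated visually against controls on a 0-100 scale (0 no effect, 100 complete control).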
# [2] = tested on: yellow nutsedge (Cyperus esculentus)
# Procedure, shortened: as §1
# kochia (Kochia scoparia) = conditions: for Kochia plant response rating: postemergence, 0-100 scale
# Procedure, shortened: as §1
# soybean (Glycine max) = conditions: Preemergence; for Soybean plant response rating: scale 0 to 100
# Procedure, shortened: as §1
# [3] = tested on: lambsquarters (Chenopodium album)
# Procedure, shortened: as §1
# [4] = tested on: goosegrass (Eleusine indica)
# Procedure, shortened: as §1
# [5] = tested on: cocklebur (Xanthium strumarium); conditions: for Cocklebur plant response rating: 8 g ai/ha
# Procedure, shortened: as §1
# corn (Zea mays) = tested on: corn (Zea mays)
# Procedure, shortened: as §1
# [6] = tested on: velvetleaf (Abutilon theophrasti)
# Procedure, shortened: as §1
# [7] = tested on: giant foxtail (Setaria faberii)
# Procedure, shortened: as §1
# [8] = tested on: Russian thistle (Salsola iberica); conditions: Preemergence; for Russian Thistle plant response rating: scale 0 to 100
# Procedure, shortened: as §1
# [9] = tested on: green foxtail (Setaria viridis)
# Procedure, shortened: as §1
# [10] = tested on: wheat (Triticum aestivum)
# Procedure, shortened: as §1
# [11] = tested on: bermudagrass (Cynodon dactylon); conditions: for Bermudagrass plant response rating: 8 g ai/ha
# Procedure, shortened: as §1
# [12] = 8 g ai/ha, postemergence, 0-100 scale
# [13] = Postemergence, 16 g ai/ha, scale 0 to 100
# [14] = Postemergence, 31 g ai/ha, scale 0 to 100
# [15] = Postemergence, 62 g ai/ha, scale 0 to 100, 0 no effect, 100 complete control
# [16] = Preemergence, 31 g ai/ha, scale 0 to 100 (0 no effect, 100 complete control)
# [17] = Preemergence, 62 g ai/ha, 0 to 100 scale, 0 no effect, 100 complete control
# [18] = Preemergence, 8 g ai/ha, scale 0 to 100
# [19] = Preemergence, 16 g ai/ha, scale 0 to 100
# [20] = 16 g ai/ha, postemergence, 0-100 scale
# [21] = 31 g ai/ha, scale 0 to 100 (0 no effect, 100 complete control)
# [22] = 62 g ai/ha, 0 to 100 scale, 0 no effect, 100 complete control
# [23] = Preemergence, 16 g ai/ha, scale 0 to 100 (0 no effect, 100 complete control)
structure (smiles),measurement,setting,value
CCc1cc(-c2ccc(Br)cc2)nn1-c1c(O)cnn(C)c1=O [Compound 61],"Cupgrass, Woolly plant response rating",[1]; [12],98
same,"Plant response rating, Cupgrass, Woolly",[1]; [13],100
same,"Plant response rating, Cupgrass, Woolly",[1]; [14],100
same,"Plant response rating, Cupgrass, Woolly",[1]; [15],100
same,"Plant response rating, Cupgrass, Woolly",[1]; [16],100
same,"Plant response rating, Cupgrass, Woolly",[1]; [17],100
same,"Cupgrass, Woolly plant response rating",[1]; [18],80
same,"Cupgrass, Woolly plant response rating",[1]; [19],98
same,"Nutsedge, Yellow plant response rating",[2]; [12],0
same,"Nutsedge, Yellow plant response rating",[2]; [20],0
same,"Plant response rating, Nutsedge, Yellow",[2]; [14],0
same,"Plant response rating, Nutsedge, Yellow",[2]; [15],0
same,"Plant response rating, Nutsedge, Yellow",[2]; [16],0
same,"Plant response rating, Nutsedge, Yellow",[2]; [17],0
same,"Nutsedge, Yellow plant response rating",[2]; [18],0
same,"Nutsedge, Yellow plant response rating",[2]; [19],0
same,Kochia plant response rating,kochia (Kochia scoparia); 8 g ai/ha,0
same,Kochia plant response rating,kochia (Kochia scoparia); 16 g ai/ha,0
same,"Plant response rating, Kochia",kochia (Kochia scoparia); [14],35
same,"Plant response rating, Kochia",kochia (Kochia scoparia); [15],45
same,"Plant response rating, Kochia",kochia (Kochia scoparia); [16],0
same,"Plant response rating, Kochia",kochia (Kochia scoparia); [17],0
same,"Plant response rating, Soybean",soybean (Glycine max); [21],0
same,"Plant response rating, Soybean",soybean (Glycine max); [22],0
same,Soybean plant response rating,soybean (Glycine max); 8 g ai/ha,0
same,Soybean plant response rating,soybean (Glycine max); 16 g ai/ha,0
same,Lambsquarters plant response rating,[3]; [12],0
same,Lambsquarters plant response rating,[3]; [20],0
same,"Plant response rating, Lambsquarters",[3]; [14],0
same,"Plant response rating, Lambsquarters",[3]; [15],0
same,"Plant response rating, Lambsquarters",[3]; [16],0
same,"Plant response rating, Lambsquarters",[3]; [17],0
same,Lambsquarters plant response rating,[3]; [18],0
same,Lambsquarters plant response rating,[3]; [19],0
same,Goosegrass plant response rating,[4]; [12],98
same,Goosegrass plant response rating,[4]; [20],100
same,"Plant response rating, Goosegrass",[4]; [14],100
same,"Plant response rating, Goosegrass",[4]; [15],100
same,"Plant response rating, Goosegrass",[4]; [16],100
same,"Plant response rating, Goosegrass",[4]; [17],100
same,Goosegrass plant response rating,[4]; [18],80
same,Goosegrass plant response rating,[4]; [19],100
same,Cocklebur plant response rating,"[5]; postemergence, 0-100 scale",0
same,"Plant response rating, Cocklebur",[5]; [13],0
same,"Plant response rating, Cocklebur",[5]; [14],0
same,"Plant response rating, Cocklebur",[5]; [15],0
same,"Plant response rating, Cocklebur",[5]; [23],0
same,"Plant response rating, Cocklebur",[5]; [16],0
same,"Plant response rating, Cocklebur",[5]; [17],0
same,Cocklebur plant response rating,"[5]; Preemergence, scale 0 to 100",0
same,Corn plant response rating,corn (Zea mays); [12],75
same,"Plant response rating, Corn",corn (Zea mays); [13],100
same,"Plant response rating, Corn",corn (Zea mays); [14],100
same,"Plant response rating, Corn",corn (Zea mays); [15],100
same,"Plant response rating, Corn",corn (Zea mays); [16],100
same,"Plant response rating, Corn",corn (Zea mays); [17],100
same,Corn plant response rating,corn (Zea mays); [18],95
same,Corn plant response rating,corn (Zea mays); [19],98
same,Velvetleaf plant response rating,[6]; [12],0
same,Velvetleaf plant response rating,[6]; [20],0
same,"Plant response rating, Velvetleaf",[6]; [14],0
same,"Plant response rating, Velvetleaf",[6]; [15],0
same,"Plant response rating, Velvetleaf",[6]; [16],0
same,"Plant response rating, Velvetleaf",[6]; [17],0
same,Velvetleaf plant response rating,[6]; [18],0
same,Velvetleaf plant response rating,[6]; [19],0
same,"Foxtail, Giant plant response rating",[7]; [12],98
same,"Plant response rating, Foxtail, Giant",[7]; [13],100
same,"Plant response rating, Foxtail, Giant",[7]; [14],100
same,"Plant response rating, Foxtail, Giant",[7]; [15],100
same,"Plant response rating, Foxtail, Giant",[7]; [16],100
same,"Plant response rating, Foxtail, Giant",[7]; [17],100
same,"Foxtail, Giant plant response rating",[7]; [18],75
same,"Foxtail, Giant plant response rating",[7]; [19],100
same,"Plant response rating, Russian Thistle",[8]; [21],0
same,"Plant response rating, Russian Thistle",[8]; [22],0
same,Russian Thistle plant response rating,[8]; 8 g ai/ha,0
same,Russian Thistle plant response rating,[8]; 16 g ai/ha,0
same,"Foxtail, Green plant response rating",[9]; [12],95
same,"Plant response rating, Foxtail, Green",[9]; [13],100
same,"Plant response rating, Foxtail, Green",[9]; [14],100
same,"Plant response rating, Foxtail, Green",[9]; [15],100
same,"Plant response rating, Foxtail, Green",[9]; [16],100
same,"Plant response rating, Foxtail, Green",[9]; [17],100
same,"Foxtail, Green plant response rating",[9]; [18],100
same,"Foxtail, Green plant response rating",[9]; [19],100
same,Wheat plant response rating,[10]; [12],90
same,Wheat plant response rating,[10]; [20],95
same,"Plant response rating, Wheat",[10]; [14],98
same,"Plant response rating, Wheat",[10]; [15],100
same,"Plant response rating, Wheat",[10]; [16],90
same,"Plant response rating, Wheat",[10]; [17],95
same,Wheat plant response rating,[10]; [19],30
same,Bermudagrass plant response rating,"[11]; postemergence, 0-100 scale",55
same,"Plant response rating, Bermudagrass",[11]; [13],70
same,"Plant response rating, Bermudagrass",[11]; [14],95
same,"Plant response rating, Bermudagrass",[11]; [15],100
same,Bermudagrass plant response rating,"[11]; Preemergence, scale 0 to 100 (0 no effect, 100 complete control)",55
same,"Plant response rating, Bermudagrass",[11]; [23],80
same,"Plant response rating, Bermudagrass",[11]; [16],90
same,"Plant response rating, Bermudagrass",[11]; [17],95
